The record followed here is publication PMC8686763, “Pre-Steady-State Kinetics of the SARS-CoV-2 Main Protease as a Powerful Tool for Antiviral Drug Discovery” (Frontiers in Pharmacology, 2021).

The target of one assay is WT M^pro (Severe acute respiratory syndrome coronavirus 2, UniProt P0DTD1). The format is binding.
A further assay deals with SARS-CoV-2 M^pro (WT) (Severe acute respiratory syndrome coronavirus 2, UniProt P0DTD1). The assay can be described thus: biochemical. The assay is classed as binding. Conditions: for ΔTm at 50 µM: read-out: ΔTm.
[1] abbreviates: 5 μM M^pro, 50 μM inhibitor, vs DMSO control.

Read-outs that look alike come from different tables or passages of the source.

In general, ΔTm refers to the change in melting temperature against a reference sample.

For `COc1cccc2[nH]c(C(=O)N[C@@H](CC(C)C)C(=O)N[C@@H](C[C@@H]3CCNC3=O)C(=O)CO)cc12` [PF-00835231], on WT M^pro, the “K 2 (= k 2/k −2)” value was determined as 0.37 ± 0.07, the “k 2” value came out at 0.90 ± 0.18 s⁻¹, the “k -2” value was 2.4 ± 0.1 s⁻¹ and the k chem is 0.17 ± 0.07 s⁻¹. Besides, on WT M^pro (25 °C), the “k 1” value is on record as “(0.35 ± 0.09)×10^6 M^−1×s^−1” and the “k -1” value turned out to be 12.4 ± 0.6 s⁻¹. Also, at SARS-CoV-2 M^pro (WT), the Tm was determined as 70.25 °C, the “change of protein Tm upon binding (in words)” value (from here on “change”) is on record as “caused changes of protein Tm” and the ΔTm at 50 µM was roughly 14 °C.

On to `CC(C)(C)NC(=O)N[C@H](C(=O)N1C[C@H]2[C@@H]([C@H]1C(=O)NC(CC1CCC1)C(=O)C(N)=O)C2(C)C)C(C)(C)C` (stereo partly drawn) [Boceprevir], for which, at SARS-CoV-2 M^pro (WT), the Tm came to 62.00 °C and the “change” value is recorded as “caused changes of protein Tm”. The ΔTm at 50 µM on SARS-CoV-2 M^pro (WT) (setting [1]) stood at 5.75 °C.

On to `CCC[C@H](NC(=O)[C@@H]1[C@H]2CCC[C@H]2CN1C(=O)[C@@H](NC(=O)[C@@H](NC(=O)c1cnccn1)C1CCCCC1)C(C)(C)C)C(=O)C(=O)NC1CC1` [Telaprevir], for which the “change” value on SARS-CoV-2 M^pro (WT) is reported as “did not result in Tm changes”. Moreover, on SARS-CoV-2 M^pro (WT) (5 μM M^pro, 50 μM inhibitor, DMSO control 56.25), the Tm worked out at 56.25 °C. Besides, the ΔTm at 50 µM on SARS-CoV-2 M^pro (WT) (setting [1]) amounted to 0 °C.
